Measured values from patent US20220071971A1, “MACROCYCLIC COMPOUNDS AND THEIR USE IN THE TREATMENT OF DISEASE” (NOVARTIS AG, priority 2018, published 2022).

Molecular target: T1, delF508-CFTR (Homo sapiens, UniProt P13569, DEL508-508)
T1 construct: expressed in transfected cells
Experiment: Measurement of delF508-CFTR-HRP surface expression in CFBE41o- cells
Assay type: cell-based
Conditions: for EC50: HRP-tagged delF508-CFTR surface expression, CFBE41o- cells, 24 h with compound, 10-point curve, highest concentration 10 μM; for Emax: CFBE41o-, read-out: DelF508-CFTR-HRP Amax %
From the text: Measurement of deIF508-CFTR-HRP Surface Expression in CFBE41o-Cells
This assay quantifies the cell surface expressions of the mutant CFTR channel using an extracellular HRP tag.
A cellular assay was developed to measure surface expression of horseradish peroxidase (HRP) tagged delF508-CFTR in the human bronchial epithelial immortalized CFBE41o-cell line (Phuan, P. W., et al, (2014) Molecular Pharmacology 86:42-51). Specifically, the HRP sequence was inserted into the fourth extracellular loop of delF508-CFTR and stably expressed in CFBE41o-cells. Cells were seeded in 384 well plate at a density of 5000 cells/well and incubated at 37° C. for 12 to 24 hours in medium (Gibco MEM #11095, 10% FBS, 10 mM HEPES, […], 200 μg/mL G418, 3 μg/mL Puromycin). The delF508-CFTR-HRP expression was induced with 500 ng/mL doxycycline (Sigma D-9891, dissolved in H2O and sterile filtered) in medium and the cells were incubated at 37° C. for 48 h. Old medium was removed and fresh medium was added containing 500 ng/mL doxycycline and unknown test compound at required test concentration in DMSO, not exceeding 0.5% final DMSO concentration. The highest concentration tested was 10 μM with a 10-point concentration response curve using a 3-fold dilution. After addition of compounds, the cells were incubated for 24 h at 37° C. On the final day, cells were washed four times in PBS containing 1 mM MgCl2 and 0.1 mM CaCl2. HRP-Substrate (SuperSignal ELISA Pico, Fisher #37069) 20 μl/well was added and the luminescence signal was determined (Viewlux, Perkin Elmer). Light was emitted upon addition of exogenous HRP-Substrate only when delF508-CFTR-HRP reached the cell surface and the HRP tag was accessible to the HRP-Substrate (note: HRP-Substrate cannot cross the lipid bilayer to reach delF508-CFTR-HRP misfolded within the cell).
The median activity for the lowest concentration of the compounds on each assay plate was calculated and this value was used to normalize the signal for each well on the respective plate. Three replicates at each concentrations for every compound were run to determine one EC50. The median value was determined and used to calculate compound activities as described below. Effective half maximal values (EC50) were calculated for each compound by performing logistic regression on measured dose-response data points using the equation: […]
where “Y” is the observed activity, “Bottom” is the lowest observed value, “Top” is the highest observed value, and the “Hill coefficient” gives the largest absolute value of the slope. The curve fitting is carried out by a curve fitting program implemented at GNF using Matlab (Mathworks).
The dose response curves also were used to calculate Fold Change (FC) using the equation: […]
Compound efficacy relative to the reference compound 3-(6-(1-(2,2-difluorobenzo[d][1,3]dioxol-5-yl)cyclopropane-1-carboxamido)-3-methylpyridin-2-yl)benzoic acid was determined using the following formula: […]

[1] = efficacy relative to reference compound 3-(6-(1-(2,2-difluorobenzo[d][1,3]dioxol-5-yl)cyclopropane-1-carboxamido)-3-methylpyridin-2-yl)benzoic acid

T1 sequence (P13569 with tags, fused parts or gaps DEL508-508): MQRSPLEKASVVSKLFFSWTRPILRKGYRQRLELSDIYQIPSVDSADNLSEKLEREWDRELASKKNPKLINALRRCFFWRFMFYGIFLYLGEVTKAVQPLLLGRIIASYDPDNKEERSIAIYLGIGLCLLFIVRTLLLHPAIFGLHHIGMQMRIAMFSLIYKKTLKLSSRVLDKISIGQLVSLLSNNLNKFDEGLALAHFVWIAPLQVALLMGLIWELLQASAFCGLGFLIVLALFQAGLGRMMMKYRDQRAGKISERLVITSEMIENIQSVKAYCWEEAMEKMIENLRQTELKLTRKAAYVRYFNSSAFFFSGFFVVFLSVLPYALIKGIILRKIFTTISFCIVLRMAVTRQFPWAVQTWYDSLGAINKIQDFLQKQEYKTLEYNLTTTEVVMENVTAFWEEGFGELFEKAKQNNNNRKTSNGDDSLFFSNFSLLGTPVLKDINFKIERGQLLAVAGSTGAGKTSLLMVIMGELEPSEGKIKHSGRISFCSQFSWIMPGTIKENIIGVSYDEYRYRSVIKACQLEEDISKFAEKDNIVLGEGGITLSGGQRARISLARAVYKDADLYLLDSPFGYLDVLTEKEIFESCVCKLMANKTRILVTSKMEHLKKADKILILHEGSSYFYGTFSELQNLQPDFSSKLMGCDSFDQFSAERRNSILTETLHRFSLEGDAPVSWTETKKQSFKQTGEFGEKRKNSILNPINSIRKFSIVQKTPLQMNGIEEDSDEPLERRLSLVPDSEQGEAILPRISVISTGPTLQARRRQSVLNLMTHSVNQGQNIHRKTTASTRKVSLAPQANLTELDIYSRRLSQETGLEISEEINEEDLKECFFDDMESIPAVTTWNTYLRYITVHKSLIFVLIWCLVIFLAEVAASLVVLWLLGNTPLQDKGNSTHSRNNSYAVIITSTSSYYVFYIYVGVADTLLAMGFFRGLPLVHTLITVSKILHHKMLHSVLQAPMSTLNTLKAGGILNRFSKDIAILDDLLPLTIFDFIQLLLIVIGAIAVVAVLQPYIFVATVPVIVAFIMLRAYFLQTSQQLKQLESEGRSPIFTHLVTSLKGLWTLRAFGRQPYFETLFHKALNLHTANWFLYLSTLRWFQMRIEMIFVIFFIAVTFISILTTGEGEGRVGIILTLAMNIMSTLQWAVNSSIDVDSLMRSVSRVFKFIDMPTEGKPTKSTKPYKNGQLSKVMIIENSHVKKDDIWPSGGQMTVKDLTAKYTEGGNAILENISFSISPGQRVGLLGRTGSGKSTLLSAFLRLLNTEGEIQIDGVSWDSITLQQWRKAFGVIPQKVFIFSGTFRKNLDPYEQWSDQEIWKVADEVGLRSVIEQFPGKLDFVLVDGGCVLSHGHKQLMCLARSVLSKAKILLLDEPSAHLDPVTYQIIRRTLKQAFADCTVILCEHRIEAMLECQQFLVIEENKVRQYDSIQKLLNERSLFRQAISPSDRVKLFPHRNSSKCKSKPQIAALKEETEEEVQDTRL

Row | Structure (SMILES) | EC50 | Emax [1] | DelF508-CFTR-HRP Amax % [1]
1 | O=C(O)CCCN1CCCCCCCc2ccccc2-c2nc(ccc2C(F)(F)F)NS(=O)(=O)c2cccc1n2 [Compound 65, 4-(4,4-dioxido-2^3-(trifluoromethyl)-4-thia-3,6-diaza-2,5(2,6)-dipyridina-1(1,2)-benzenacyclotridecaphane-6-yl)butanoic acid] | 280 nM |  | 
2 | O=C(O)CCCN1CCCCCCCCCc2ccccc2-c2nc(ccc2C(F)(F)F)NS(=O)(=O)c2cccc1n2 [Compound 66, 4-(4,4-dioxido-2^3-(trifluoromethyl)-4-thia-3,6-diaza-2,5(2,6)-dipyridina-1(1,2)-benzenacyclopentadecaphane-6-yl)butanoic acid] | 224 nM |  | 
3 | O=C(O)CCCN1CCCCCc2ccccc2-c2nc(ccc2C(F)(F)F)NS(=O)(=O)c2cccc1n2 [Compound 67, 4-(4,4-dioxido-2^3-(trifluoromethyl)-4-thia-3,6-diaza-2,5(2,6)-dipyridina-1(1,2)-benzenacycloundecaphane-6-yl)butanoic acid] | 608 nM |  | 
4 | O=C(O)CCCN1CCCCCCc2ccc(F)cc2-c2nc(ccc2C(F)(F)F)NS(=O)(=O)c2cccc1n2 [Compound 68, 4-(1^5-fluoro-4,4-dioxido-2^3-(trifluoromethyl)-4-thia-3,6-diaza-2,5(2,6)-dipyridina-1(1,2)-benzenacyclododecaphane-6-yl)butanoic acid] | 418 nM |  | 
5 | O=C(O)CCN1CCCCCCCCc2ccccc2-c2nc(ccc2C(F)(F)F)NS(=O)(=O)c2cccc1n2 [Compound 69, 3-(4,4-dioxido-2^3-(trifluoromethyl)-4-thia-3,6-diaza-2,5(2,6)-dipyridina-1(1,2)-benzenacyclotetradecaphane-6-yl)propanoic acid] | 351 nM |  | 
6 | O=C(O)CCCCCN1CCCCCc2ccccc2-c2nc(ccc2C(F)(F)F)NS(=O)(=O)c2cccc1n2 [Compound 70, 6-(4,4-dioxido-2^3-(trifluoromethyl)-4-thia-3,6-diaza-2,5(2,6)-dipyridina-1(1,2)-benzenacycloundecaphane-6-yl)hexanoic acid] | 373 nM | 843% | 
7 | O=C(O)CCCN1CCCCCCCCc2ccccc2-c2nc(ccc2C(F)(F)F)NS(=O)(=O)c2cccc1n2 [Compound 71, 4-(4,4-dioxido-2^3-(trifluoromethyl)-4-thia-3,6-diaza-2,5(2,6)-dipyridina-1(1,2)-benzenacyclotetradecaphane-6-yl)butanoic acid] | 291 nM |  | 
8 | Cc1ccc2nc1-c1ccccc1CCCCCN(CCCC(=O)O)c1cccc(n1)S(=O)(=O)N2 [Compound 72, 4-(2^3-methyl-4,4-dioxido-4-thia-3,6-diaza-2,5(2,6)-dipyridina-1(1,2)-benzenacycloundecaphane-6-yl)butanoic acid] | 2430 nM | 396% | 
9 | O=CCCCN1CCCCCc2ccccc2-c2nc(ccc2C(F)(F)F)NS(=O)(=O)c2cccc1n2 [Compound 73, 4-(4,4-dioxido-2^3-(trifluoromethyl)-4-thia-3,6-diaza-2,5(2,6)-dipyridina-1(1,2)-benzenacycloundecaphane-6-yl)butanal] | 439 nM | 764% | 
10 | O=C(O)COCCN1CCCCCc2ccccc2-c2nc(ccc2C(F)(F)F)NS(=O)(=O)c2cccc1n2 [Compound 74, 2-(2-(4,4-dioxido-2^3-(trifluoromethyl)-4-thia-3,6-diaza-2,5(2,6)-dipyridina-1(1,2)-benzenacycloundecaphane-6-yl)ethoxy)acetic acid] | 1990 nM | 745% | 
11 | O=C(O)CCN1CCCCCCCCCc2ccccc2-c2nc(ccc2C(F)(F)F)NS(=O)(=O)c2cccc1n2 [Compound 75, 3-(4,4-dioxido-2^3-(trifluoromethyl)-4-thia-3,6-diaza-2,5(2,6)-dipyridina-1(1,2)-benzenacyclopentadecaphane-6-yl)propanoic acid] | 417 nM |  | 
12 | O=C(O)CCCN1CCCCCCc2ccccc2-c2nc(ccc2C(F)(F)F)NS(=O)(=O)c2cccc1n2 [Compound 76, 4-(4,4-dioxido-2^3-(trifluoromethyl)-4-thia-3,6-diaza-2,5(2,6)-dipyridina-1(1,2)-benzenacyclododecaphane-6-yl)butanoic acid] | 421 nM |  | 
13 | O=C(O)CCCCN1CCCCCc2ccccc2-c2nc(ccc2C(F)(F)F)NS(=O)(=O)c2cccc1n2 [Compound 77, 5-(4,4-dioxido-2^3-(trifluoromethyl)-4-thia-3,6-diaza-2,5(2,6)-dipyridina-1(1,2)-benzenacycloundecaphane-6-yl)pentanoic acid] | 492 nM |  | 
14 | O=C(O)CCCCN1CCCCCCc2ccccc2-c2nc(ccc2C(F)(F)F)NS(=O)(=O)c2cccc1n2 [Compound 78, 5-(4,4-dioxido-2^3-(trifluoromethyl)-4-thia-3,6-diaza-2,5(2,6)-dipyridina-1(1,2)-benzenacyclododecaphane-6-yl)pentanoic acid] | 293 nM |  | 
15 | O=C(O)CCCN1CCCCCc2ccccc2-c2nc(ccc2Cl)NS(=O)(=O)c2cccc1n2 [Compound 79, 4-(2^3-chloro-4,4-dioxido-4-thia-3,6-diaza-2,5(2,6)-dipyridina-1(1,2)-benzenacycloundecaphane-6-yl)butanoic acid] | 1600 nM |  | 
16 | O=C(O)CCCCN1CCCCc2ccccc2-c2nc(ccc2C(F)(F)F)NS(=O)(=O)c2cccc1n2 [Compound 80, 5-(4,4-dioxido-2^3-(trifluoromethyl)-4-thia-3,6-diaza-2,5(2,6)-dipyridina-1(1,2)-benzenacyclodecaphane-6-yl)pentanoic acid] | 1400 nM |  | 
17 | O=C(O)CCN1CCCCOc2ccc(F)cc2-c2nc(ccc2C(F)(F)F)NS(=O)(=O)c2cccc1n2 [Compound 81, 3-(1^5-fluoro-4,4-dioxido-2^3-(trifluoromethyl)-11-oxa-4-thia-3,6-diaza-2,5(2,6)-dipyridina-1(1,2)-benzenacycloundecaphane-6-yl)propanoic acid] | 2330 nM | 527% | 
18 | O=C(O)CCCCCN1CCCCCc2ccccc2-c2nc(ccc2Cl)NS(=O)(=O)c2cccc1n2 [Compound 82, 6-(2^3-chloro-4,4-dioxido-4-thia-3,6-diaza-2,5(2,6)-dipyridina-1(1,2)-benzenacycloundecaphane-6-yl)hexanoic acid] | 844 nM | 652% | 
19 | COc1ccc2nc1-c1ccccc1CCCCCN(CCCC(=O)O)c1cccc(n1)S(=O)(=O)N2 [Compound 83, 4-(2^3-methoxy-4,4-dioxido-4-thia-3,6-diaza-2,5(2,6)-dipyridina-1(1,2)-benzenacycloundecaphane-6-yl)butanoic acid] | 2430 nM |  | 163.8%
20 | O=C(O)CCN1CCCCCCc2ccccc2-c2nc(ccc2C(F)(F)F)NS(=O)(=O)c2cccc1n2 [Compound 84, 3-(4,4-dioxido-2^3-(trifluoromethyl)-4-thia-3,6-diaza-2,5(2,6)-dipyridina-1(1,2)-benzenacyclododecaphane-6-yl)propanoic acid] | 1040 nM |  | 
21 | O=C(O)CCN1CCCCCCc2ccc(F)cc2-c2nc(ccc2C(F)(F)F)NS(=O)(=O)c2cccc1n2 [Compound 85, 3-(1^5-fluoro-4,4-dioxido-2^3-(trifluoromethyl)-4-thia-3,6-diaza-2,5(2,6)-dipyridina-1(1,2)-benzenacyclododecaphane-6-yl)propanoic acid] | 714 nM |  | 
22 | O=C(O)CCCN1CCCCCc2ccc(F)cc2-c2nc(ccc2C(F)(F)F)NS(=O)(=O)c2cccc1n2 [Compound 86, 4-(1^5-fluoro-4,4-dioxido-2^3-(trifluoromethyl)-4-thia-3,6-diaza-2,5(2,6)-dipyridina-1(1,2)-benzenacycloundecaphane-6-yl)butanoic acid] | 293 nM |  | 
23 | O=C(O)CCN1CCCCc2ccccc2-c2nc(ccc2C(F)(F)F)NS(=O)(=O)c2cccc1n2 [Compound 87, 3-(4,4-dioxido-2^3-(trifluoromethyl)-4-thia-3,6-diaza-2,5(2,6)-dipyridina-1(1,2)-benzenacyclodecaphane-6-yl)propanoic acid] | 1420 nM | 306% | 
